# Results as given in patent US20230028441A1, “NOVEL HETEROARYL-TRIAZOLE COMPOUNDS AS PESTICIDES” (Bayer Aktiengesellschaft, priority 2019, published 2023).
# Experiments:
# Type in all cases: in vivo
# [1] = tested on: cattle tick larvae (Rhipicephalus microplus), strain Parkhurst, resistant against synthetic pyrethroids; experiment: Rhipicephalus (Boophilus) microplus in-vitro contact test, larval cattle tick; conditions: 5 μg/cm^2 (=500 g/ha), after 48 hours, read-out: efficacy (larvae dead or moribund)
# How it was run: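 Acetone solutions of compound were coated on glass tube walls (900 ppm giving 5 μg/cm^2) and dried. 20–50 pyrethroid-resistant Parkhurst larvae were held per tube at 27° C and 85% relative humidity; after 48 h negative geotaxis scored efficacy as percent larvae dead or moribund.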
# [2] = tested on: adult engorged female ticks (Rhipicephalus microplus); experiment: Rhipicephalus (Boophilus) microplus injection test; conditions: 168 h, egg deposition after 7 days, read-out: efficacy (infertile eggs); for pest or weed control at 0.004 mg: 4 μg/animal
# How it was run: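 Compound was dissolved in DMSO at 10 mg per 0.5 mL and diluted with DMSO to the test concentration. Five engorged adult females received a 1 μL abdominal injection and were kept in a climate chamber. After 7 days, fertile egg deposition was scored, with unclear eggs held until hatching at about 42 days; 100% efficacy means all eggs were infertile.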
# [3] = tested on: adult cat fleas (Ctenocephalides felis); experiment: Ctenocephalides felis in-vitro contact test, adult cat flea; conditions: 5 μg/cm^2 (=500 g/ha), after 48 hours, read-out: efficacy (fleas dead or moribund)
# Procedure: 9 mg compound is solved in 1 mL acetone and diluted with acetone to the desired concentration. 250 μL of the test solution is filled in 25 mL glass test tubes and homogeneously distributed on the inner walls by rotation and tilting on a shaking device (2 h at 30 rpm). With a compound concentration of 900 ppm, an inner surface of 44.7 cm^2 and a homogeneous distribution, a dose of 5 μg/cm^2 is achieved.
# After the solvent has evaporated, each test tube is filled with 5-10 adult cat fleas (Ctenocephalides felis), closed with a perforated lid and incubated in a lying position at room temperature and relative humidity. After 48 hours efficacy is determined. The fleas are patted on the ground of the tubes and are incubated on a heating plate at 45-50° C. for at most 5 minutes. Immotile or uncoordinated moving fleas, which are not able to escape the heat by climbing upwards, are marked as dead or moribund.
# An efficacy of 100% means all fleas are dead or moribund; 0% means no fleas are dead or moribund.
# [4] = tested on: adult unfed cat fleas (Ctenocephalides felis); experiment: Ctenocephalides felis oral test; conditions: 48 h, 100 ppm in cattle blood, after 2 days
# How it was run: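 About 20 adult unfed Ctenocephalides felis fed through parafilm on cattle blood dosed with compound (DMSO stock diluted in blood), blood chamber at 37°C, fleas at room temperature. Mortality (%) scored after 2 days; 100% means all fleas killed.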
# [5] = tested on: larvae of the banded cucumber beetle (Diabrotica balteata); experiment: Diabrotica balteata spray test; conditions: 168 h, 100 g/ha (=32 μg/well), after 7 days, wheat seeds, read-out: efficacy (seedlings grown up)
# How it was run: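 Germinated wheat seedlings (5 per well, agar plates) sprayed with compound in acetone/DMF diluted in water with 1000 ppm emulsifier, then infested with 10-20 larvae per unit. Efficacy scored after 7 days as % seedling growth relative to untreated, uninfested control (100% = normal growth, 0% = none).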
# [6] = tested on: brown planthopper (Nilaparvata lugens); experiment: Nilaparvata lugens spray test; conditions: in Oryza sativa, 96 h
# Procedure: Solvent: 78.0 parts by weight of acetone • • 1.5 parts by weight of dimethylformamide
# (§1) Emulsifier: alkylarylpolyglycol ether
# (§2) To produce a suitable preparation of active compound, 1 part by weight of active compound is mixed with the stated amount of solvents and is diluted with water, containing an emulsifier concentration of 1000 ppm, to the desired concentration. Further test concentrations are prepared by dilution with emulsifier containing water.
# Rice plants (Oryza sativa) are sprayed with a preparation of the active ingredient of the desired concentration and the plants are infested with the brown planthopper (Nilaparvata lugens).
# After 4 days mortality in % is determined. 100% means all planthoppers have been killed and 0% means none of the planthoppers have been killed.
# [7] = tested on: fall armyworm larvae (Spodoptera frugiperda); experiment: Spodoptera frugiperda spray test (maize leaf sections); conditions: 168 h
# How it was run: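 Maize leaf sections were sprayed with compound formulated in acetone/DMF and diluted in water containing 1000 ppm emulsifier. Once dry, sections were infested with fall armyworm larvae. Mortality (%) was scored after 7 days.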
# [8] = tested on: adult brown dog ticks (Rhipicephalus sanguineus); experiment: Rhipicephalus sanguineus in-vitro contact test with adult brown dog ticks; conditions: after 48 hours, read-out: efficacy (ticks dead or moribund); for pest or weed control at 1 µg/cm2, 100 g/ha: 1 μg/cm^2 (=100 g/ha); for pest or weed control at 5 µg/cm2, 500 g/ha: 5 μg/cm^2 (=500 g/ha)
# How it was run: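 Compound in acetone coated onto glass tube inner walls at 900 ppm, giving 5 μg/cm^2. Adult ticks (5-10 per tube) held at room temperature for 48 h, then placed on a 45-50° C. heating plate for up to 5 min. Ticks unable to climb away counted dead or moribund; efficacy given as % dead/moribund.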
# [9] = tested on: larvae of the southern green stink bug (Nezara viridula); experiment: Nezara viridula spray test; conditions: in Hordeum vulgare, 96 h
# How it was run: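 Barley plants infested with Nezara viridula larvae were sprayed with compound in acetone/dimethylformamide, diluted in water containing 1000 ppm alkylarylpolyglycol ether emulsifier. Mortality (%) was scored after 4 days; 100% means all stink bugs killed.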
# [10] = tested on: green peach aphid (Myzus persicae); experiment: Myzus persicae oral test; conditions: 120 h
# How it was run: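 Oral uptake format: water-diluted acetone concentrate of compound is blended into IPL41 medium carrying 33%+15% sugar and offered under a parafilm membrane. Percentage of dead insects is recorded after 5 days.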
# [11] = tested on: green peach aphid (Myzus persicae); experiment: Myzus persicae spray test; conditions: foliar, 120 h, 100 g/ha, after 5 days, Chinese cabbage leaf disks
# Procedure: Solvent: 78.0 parts by weight acetone • 1.5 parts by weight dimethylformamide
# as §1, §2
# Chinese cabbage (Brassica pekinensis) leaf disks infected with all instars of the green peach aphid (Myzus persicae), are sprayed with a preparation of the active ingredient of the desired concentration.
# After 5 days mortality in % is determined. 100% means all aphids have been killed and 0% means none of the aphids have been killed.
Structure (SMILES),pest or weed control at 5 µg/cm2 [1] [%],pest or weed control at 0.004 mg [2] [%],pest or weed control at 0.02 mg ([2]; 20 μg/animal) [%],pest or weed control at 5 µg/cm2 [3] [%],mortality at 100 ppm [4] [%],"pest or weed control at 32 µg/disc, 100 g/ha [5] [%]",mortality at 500 g/ha [6] [%],mortality at 100 g/ha [7] [%],"pest or weed control at 1 µg/cm2, 100 g/ha [8] [%]","pest or weed control at 5 µg/cm2, 500 g/ha [8] [%]",mortality at 500 g/ha [9] [%],mortality at 4 ppm [10] [%],mortality at 100 g/ha [11] [%]
CNc1nc(C(C)NC(=O)c2cc(Cl)cc(Br)c2)n(-c2ncccn2)n1 (stereo not drawn) [I-121],100,100,100,100,100,100,90,100,,,,,
CNc1nc([C@H](C)NC(=O)c2cc(Br)cc(Br)c2)n(-c2ncccn2)n1 [I-131],100,,,100,,100,90,100,100,100,100,,
CNc1nc([C@H](C)NC(=O)c2cc(Cl)cc(C(C)(C)C#N)c2)n(-c2ncccn2)n1 [I-137],80,,,90,,100,90,100,,,100,,
"C[C@H](NC(=O)c1cc(C(F)(F)F)cc(C(F)(F)F)c1)c1nc(N(C)C(=O)OC(C)(C)C)nn1-c1ncccn1 [I-133, tert-butyl N-[5-[(1S)-1-[[3,5-bis(trifluoromethyl)benzoyl]amino]ethyl]-1-pyrimidin-2-yl-1,2,4-triazol-3-yl]-N-methyl-carbamate]",100,,,100,,100,100,100,,,100,,
CC(=O)N(C)c1nc(C(C)NC(=O)c2cc(C(F)(F)F)cc(C(F)(F)F)c2)n(-c2ncccn2)n1 (stereo not drawn) [I-091],,100,,100,100,100,,100,,,,100,
CC(NC(=O)c1cc(Cl)cc(C(F)(F)F)c1)c1nc(NC(=O)C2(Cl)CC2)nn1-c1ncccn1 (stereo not drawn) [I-022],90,100,,100,100,,,100,100,100,,100,
C[C@H](NC(=O)c1cc(OC(F)(F)F)cc(C2CC2)c1)c1nc(N)nn1-c1ncccn1 [I-216],,,,,,,,100,,,,,90
"C[C@H](NC(=O)c1cc(C(F)(F)F)cc(C(F)(F)F)c1)c1nc(N(C)C)nn1-c1ncccn1 [I-141, N-[(1S)-1-[5-(dimethylamino)-2-pyrimidin-2-yl-1,2,4-triazol-3-yl]ethyl]-3,5-bis(trifluoromethyl)benzamide]",100,,,100,,100,100,100,80,100,100,,
CNc1nc(C(C)NC(=O)c2cc(Br)cc(Br)c2)n(-c2ncccn2)n1 (stereo not drawn) [I-100],100,100,,100,100,100,,100,100,100,,100,
C[C@H](NC(=O)c1cc(OC(F)(F)F)cc(S(=O)(=O)C2CC2)c1)c1nc(N)nn1-c1ccc(C#N)cn1 [I-205],,,,,,,,100,,,,,90
